These results are taken from US20230203043A1, “NOVEL IMIDAZOPYRAZINE DERIVATIVES” (Hoffmann-La Roche Inc., priority 2020, published 2023).

Where a name gives a salt, the structure may show the parent alone.

For one assay, the system named is Acinetobacter baumannii ATCC17968. Kind of assay: Antimicrobial susceptibility testing: 90% growth inhibitory concentration (IC90) determination in Iso-Sensitest broth, OD600 growth. Conditions: Acinetobacter baumannii, ATCC 17968 / ATCC 17978, 16 h, read-out: A. baumannii ATCC 17978 IC90 (uM). It counts as cell-based. The method, boiled down: (§1)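 Each strain, at about 5×10^(5) CFU/ml, was incubated with twofold dilutions of compound at 35±2° C for 16 h, and IC90 was calculated from kinetic optical density measured at 600 nm during logarithmic growth.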
On to `CCc1cc(Nc2nccn3c(-c4cnn(CC(F)F)c4)cnc23)ccc1C(=O)NCCOCCN` [Example 21, N-[2-(2-aminoethoxy)ethyl]-4-[[3-[1-(2,2-difluoroethyl)pyrazol-4-yl]imidazo[1,2-a]pyrazin-8-yl]amino]-2-ethylbenzamide formate], for which the IC90 (commonly the concentration needed for an effect of 90%) amounted to 4.43 µM.

The same assay, now with this note: Acinetobacter baumannii, ATCC 17968 / ATCC 17978; strain ATCC 17978; Iso-Sensitest broth, OD600 growth over 16 h; read-out: A. baumannii ATCC 17978 IC90.
On to `CCc1cc(Nc2nccn3c(-c4cn(C)nc4C(F)(F)F)cnc23)ccc1C(=O)NCCOCCN` [Example 1, N-[2-(2-aminoethoxy)ethyl]-2-ethyl-4-[[3-[1-methyl-3-(trifluoromethyl)pyrazol-4-yl]imidazo[1,2-a]pyrazin-8-yl]amino]benzamide], for which the IC90 came to 0.93 µM.

Still in this assay, the particulars now being: strain ATCC 17978; Iso-Sensitest broth, OD600 growth over 16 h; read-out: A. baumannii ATCC 17978 IC90.
On to `CCc1cc(Nc2nccn3c(-c4c[nH]nc4C(F)(F)F)cnc23)ccc1C(=O)NCCOCCN` [Example 23, N-[2-(2-aminoethoxy)ethyl]-2-ethyl-4-[[3-[3-(trifluoromeethyl) 1H-pyrazol-4-yl]imidazo[1,2-a]pyrazin-8-yl]amino] benzamide formate], for which the IC90 amounted to 0.297 µM.
For “N-[2-(2- aminoethoxy)ethyl]- 2-ethyl-4-[[3- [1- (methoxymethyl)- 3- (trifluoromeethyl) pyrazol-4- yl]imidazo[1,2- a]pyrazin-8- yl]amino] benzamide formate [Example 22]”, the IC90 was 1.84 µM.

The test system of a further assay is Acinetobacter baumannii ATCC17961. Described as above. It counts as cell-based. The settings on record: Acinetobacter baumannii, ATCC17961, 16 h, read-out: A. baumannii ATCC 17961 IC90 (uM), strain ATCC 17961, OD600 growth over 16 h. The method, boiled down:
as §1
Consider `CCc1cc(Nc2nccn3c(-c4c[nH]nc4C(F)(F)F)cnc23)ccc1C(=O)NCCN` [Example 229, N-(2-aminoethyl)-2-ethyl-4-[[3-[3-(trifluoromethyl)-1H-pyrazol-4-yl]imidazo[1,2-a]pyrazin-8-yl]amino]benzamide formate], for which the IC90 is 1.1 µM.
As for `CCc1cc(Nc2nccn3c(-c4cn(CC(F)F)nc4C(F)(F)F)cnc23)ccc1C(=O)NCCNC(=O)CCN` [Example 536, N-(2-(3-aminopropanamido)ethyl)-4-((3-(1-(2,2-difluoroethyl)-3-(trifluoromethyl)-1H-pyrazol-4-yl)imidazo[1,2-a]pyrazin-8-yl)amino)-2-ethylbenzamide formate], the IC90 is 0.145 µM.
Take `CCc1cc(Nc2nccn3c(-c4cn(CC(F)F)nc4C(F)(F)F)cnc23)ccc1C(=O)NCCCNC(=O)[C@@H]1CC[C@H](N)C1` [Example 543, N-(3-((1R,3S)-3-aminocyclopentane-1-carboxamido)propyl)-4-((3-(1-(2,2-difluoroethyl)-3-(trifluoromethyl)-1H-pyrazol-4-yl)imidazo[1,2-a]pyrazin-8-yl)amino)-2-ethylbenzamide formate]: the IC90 worked out at 0.162 µM.
On to `CCc1cc(Nc2nccn3c(-c4cn(C5CCC5)nc4C(F)(F)F)cnc23)ccc1C(=O)NCCOCCN` [Example 273, N-[2-(2-aminoethoxy)ethyl]-4-[[3-[1-cyclobutyl-3-(trifluoromethyl)pyrazol-4-yl]imidazo[1,2-a]pyrazin-8-yl]amino]-2-ethylbenzamide formate], for which the IC90 was 0.087 µM.

The assay is the same for the next values; noted with them: Acinetobacter baumannii, ATCC17961, 16 h, strain ATCC 17961, OD600 growth over 16 h, read-out: A. baumannii ATCC 17961 IC90.
On to `CCc1cc(Nc2nccn3c(-c4cn(C)nc4C(F)(F)F)cnc23)ccc1C(=O)NCCOCCN` [Example 1, N-[2-(2-aminoethoxy)ethyl]-2-ethyl-4-[[3-[1-methyl-3-(trifluoromethyl)pyrazol-4-yl]imidazo[1,2-a]pyrazin-8-yl]amino]benzamide], for which the IC90 came out at 0.623 µM.
For `CCc1cc(Nc2nccn3c(-c4cn(CC(F)F)nc4C(F)(F)F)cnc23)ccc1C(=O)NCC(=O)NCC1CCNC1` (stereo not drawn) [Example 549, 4-[[3-[1-(2,2-difluoroethyl)-3-(trifluoromethyl)pyrazol-4-yl]imidazo[1,2-a]pyrazin-8-yl]amino]-2-ethyl-N-[2-oxo-2-(pyrrolidin-3-ylmethylamino)ethyl] benzamide formate], the IC90 came to 0.235 µM.
Turning to `CCc1cc(Nc2nccn3c(-c4cn(CC(F)F)nc4C(F)F)cnc23)ccc1C(=O)NCCOCCN` [Example 122, N-[2-(2-aminoethoxy)ethyl]-4-[[3-[1-(2,2-difluoroethyl)-3-(difluoromethyl)pyrazol-4-yl]imidazo[1,2-a]pyrazin-8-yl]amino]-2-ethylbenzamide], the IC90 was 0.208 µM.
Consider `CCc1cc(Nc2nccn3c(-c4c[nH]nc4C(F)(F)F)cnc23)ccc1C(=O)NCCOCC(C)(C)N` [Example 176, N-[2-(2-amino-2-methylpropoxy)ethyl]-2-ethyl-4-[[3-[3-(trifluoromethyl)-1H-pyrazol-4-yl]imidazo[1,2-a]pyrazin-8-yl]amino]benzamide hydrochloride], for which the IC90 stood at 0.409 µM.
Same read-out and setting: as for `CCc1cc(Nc2nccn3c(-c4cn(CC(F)F)nc4C(F)(F)F)cnc23)ccc1C(=O)NCCOC[C@@H](C)N` [Example 151, N-[2-[(2R)-2-aminopropoxy]ethyl]-4-[[3-[1-(2,2-difluoroethyl)-3-(trifluoromethyl)pyrazol-4-yl]imidazo[1,2-a]pyrazin-8-yl]amino]-2-ethylbenzamide], the figure is 0.204 µM; as for `CCc1cc(Nc2nccn3c(-c4cn(Cc5ccncn5)nc4C(F)(F)F)cnc23)ccc1C(=O)NCCOCCN` [Example 2, N-[2-(2-aminoethoxy)ethyl]-2-ethyl-4-[[3-[1-(pyrimidin-4-ylmethyl)-3-(trifluoromethyl)pyrazol-4-yl]imidazo[1,2-a]pyrazin-8-yl]amino]benzamide], 0.513 µM; as for `CCc1cc(Nc2nccn3c(-c4cn(CC#N)nc4C(F)(F)F)cnc23)ccc1C(=O)NCC(=O)NCC1CCCN1` (stereo not drawn) [Example 522, 4-[[3-[1-(cyanomethyl)-3-(trifluoromethyl)pyrazol-4-yl]imidazo[1,2-a]pyrazin-8-yl]amino]-2-ethyl-N-[2-oxo-2-(pyrrolidin-2-ylmethylamino)ethyl] benzamide formate], 0.402 µM.
The same measure, in the same setting: next, `N#CCn1cc(-c2cnc3c(Nc4ccc(C(=O)NCCNCC(=O)NCCN)c(Cl)c4)nccn23)c(C(F)(F)F)n1` [Example 815, N-(2-((2-((2-aminoethyl)amino)-2-oxoethyl)amino)ethyl)-2-chloro-4-((3-(1-(cyanomethyl)-3-(trifluoromethyl)-1H-pyrazol-4-yl)imidazo[1,2-α]pyrazin-8-yl)amino)benzamide formate]: 0.18 µM.
Still for that read-out and setting: as for `CCc1cc(Nc2nccn3c(-c4cn(CC(F)F)nc4C(F)F)cnc23)ccc1C(=O)N1CCN(C(=O)C2CCNCC2)CC1` [Example 742, (4-(4-((3-(1-(2,2-difluoroethyl)-3-(difluoromethyl)-1H-pyrazol-4-yl)imidazo[1,2-a]pyrazin-8-yl)amino)-2-ethylbenzoyl)piperazin-1-yl)(piperidin-4-yl) methanone], the figure is 0.53 µM; as for `Cc1cc(Nc2nccn3c(-c4cn(CCF)nc4C(F)(F)F)cnc23)cc(F)c1C(=O)N[C@H](C)CN` [Example 735, (R)-N-(1-aminopropan-2-yl)-2-fluoro-4-((3-(1-(2-fluoroethyl)-3-(trifluoromethyl)-1H-pyrazol-4-yl)imidazo[1,2-a]pyrazin-8-yl)amino)-6-methylbenzamide], 0.49 µM.
In the case of `O=C(CNCCNC(=O)c1ccc(Nc2nccn3c(-c4cn(CC(F)F)nc4C(F)(F)F)cnc23)cc1Cl)N[C@H]1CCNC1` [Example 822, (S)-2-chloro-4-(3-(1-2,2-difluoroethyl)-3-(trifluoromethyl)-1H-pyrazol-4-yl)imidazo[1,2-a]pyrazin-8-yl)amino)-N-(2-((2-oxo-2-(pyrrolidin-3-ylamino)ethyl) amino)ethyl) benzamide formate], the IC90 was 0.15 µM.
Regarding `Cc1cc(Nc2nccn3c(-c4cn(CC#N)nc4C(F)(F)F)cnc23)ccc1C(=O)N[C@H](C)C(=O)N[C@@H]1CCNC1` [Example 746, 4-[[3-[1-(cyanomethyl)-3-(trifluoromethyl)pyrazol-4-yl]imidazo[1,2-a]pyrazin-8-yl]amino]-2-methyl-N-[(1R)-1-methyl-2-oxo-2-[[(3R)-pyrrolidin-3-yl]amino]ethyl] benzamide formate], the IC90 was determined as 0.581 µM.

Staying with this assay, now noted: strain ATCC 17961, OD600 growth over 16 h, read-out: A. baumannii ATCC 17961 IC90.
`CCc1cc(Nc2nccn3c(-c4c[nH]nc4C(F)(F)F)cnc23)ccc1C(=O)NCCOCCN` [Example 23, N-[2-(2-aminoethoxy)ethyl]-2-ethyl-4-[[3-[3-(trifluoromeethyl) 1H-pyrazol-4-yl]imidazo[1,2-a]pyrazin-8-yl]amino] benzamide formate]: the IC90 turned out to be 0.128 µM.
Take “N-[2-(2- aminoethoxy)ethyl]- 2-ethyl-4-[[3- [1- (methoxymethyl)- 3- (trifluoromeethyl) pyrazol-4- yl]imidazo[1,2- a]pyrazin-8- yl]amino] benzamide formate [Example 22]”: the IC90 was determined as 1.84 µM.
Same read-out and setting: next, `C#CCNCCCNC(=O)c1c(C)cc(Nc2nccn3c(-c4cn(CC(F)F)nc4C(F)(F)F)cnc23)cc1F` [Example 68, 4-[[3-[1-(2,2-difluoroethyl)-3-(trifluoromethyl)pyrazol-4-yl]imidazo[1,2-a]pyrazin-8-yl]amino]-2-fluoro-6-methyl-N-[3-(prop-2-ynylamino)propyl] benzamide]: 0.43 µM; `NC1CN(C(=O)c2ccc(Nc3nccn4c(-c5c[nH]nc5C(F)(F)F)cnc34)cc2Cl)C1` [Example 167]: 0.485 µM.
